PubChem BioAssay (NCI)
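Results reflect a 48-hour exposure of cells in 96-well plates to compound at five concentrations. At the GI50, growth is halved. TGI marks complete inhibition of growth.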

Legend:
Assay in all cases: NCI anticancer screen, dose series, 48 h
SW-620 colon = tested on: SW-620 colon
UACC-257 melanoma = tested on: UACC-257 melanoma
A498 renal = tested on: A498 renal
UACC-62 melanoma = tested on: UACC-62 melanoma
T-47D breast = tested on: T-47D breast
NCI/ADR-RES ovarian = tested on: NCI/ADR-RES ovarian
NCI-H460 lung = tested on: NCI-H460 lung
OVCAR-5 ovarian = tested on: OVCAR-5 ovarian
SF-268 CNS = tested on: SF-268 CNS
ACHN renal = tested on: ACHN renal
PC-3 prostate = tested on: PC-3 prostate
MOLT-4 leukemia = tested on: MOLT-4 leukemia
SR leukemia = tested on: SR leukemia
MCF7 breast = tested on: MCF7 breast
HCT-15 colon = tested on: HCT-15 colon
HOP-92 NSCLC = tested on: HOP-92 NSCLC
SF-295 CNS = tested on: SF-295 CNS
DU-145 prostate = tested on: DU-145 prostate
TK-10 renal = tested on: TK-10 renal
CCRF-CEM leukemia = tested on: CCRF-CEM leukemia
LOX IMVI melanoma = tested on: LOX IMVI melanoma
NCI-H522 lung = tested on: NCI-H522 lung
SK-MEL-2 melanoma = tested on: SK-MEL-2 melanoma
OVCAR-3 ovarian = tested on: OVCAR-3 ovarian
EKVX NSCLC = tested on: EKVX NSCLC
A549 NSCLC = tested on: A549 NSCLC

`COc1cccc(CNCCN2C(=O)c3ccc4c5c(ccc(c35)C2=O)C(=O)N(CCNCc2cccc(OC)c2)C4=O)c1` was tested, and the GI50 (SW-620 colon) was 2.15 µM, the TGI (SW-620 colon) was 5.32 µM and the GI50 (UACC-257 melanoma) was 2.09 µM. The TGI (UACC-257 melanoma) was 3.82 µM, the GI50 (A498 renal) was 14.8 µM and the TGI (A498 renal) was 28.9 µM. For the same compound, the GI50 (UACC-62 melanoma) was 1.9 µM, the TGI (UACC-62 melanoma) was 4 µM and the GI50 (T-47D breast) was 2.05 µM. It also gave a TGI (T-47D breast) of 5.3 µM, a GI50 (NCI/ADR-RES ovarian) of 2.99 µM and a TGI (NCI/ADR-RES ovarian) of over 100 µM. The GI50 (NCI-H460 lung) was 1.96 µM, the TGI (NCI-H460 lung) was 4.33 µM and the GI50 (OVCAR-5 ovarian) was 21.1 µM. The TGI (OVCAR-5 ovarian) was 49.6 µM, the GI50 (SF-268 CNS) was 4.09 µM and the TGI (SF-268 CNS) was 27 µM. The GI50 (ACHN renal) was 6.28 µM, the TGI (ACHN renal) was 27.5 µM and the GI50 (PC-3 prostate) was 3.87 µM. For the same compound, the TGI (PC-3 prostate) was 21.6 µM, the GI50 (MOLT-4 leukemia) was 14.7 µM and the TGI (MOLT-4 leukemia) was 47.9 µM. For the same compound, the GI50 (SR leukemia) was 0.332 µM, the TGI (SR leukemia) was 2.57 µM and the GI50 (MCF7 breast) was 1.81 µM. It also gave a TGI (MCF7 breast) of 4.39 µM, a GI50 (HCT-15 colon) of 2.1 µM and a TGI (HCT-15 colon) of 4.82 µM. The GI50 (HOP-92 NSCLC) was 18.9 µM, the TGI (HOP-92 NSCLC) was 41.2 µM and the GI50 (SF-295 CNS) was 1.82 µM. The TGI (SF-295 CNS) was 3.88 µM, the GI50 (DU-145 prostate) was 3.94 µM and the TGI (DU-145 prostate) was 14.9 µM. The GI50 (TK-10 renal) was 1.85 µM, the TGI (TK-10 renal) was 4.31 µM and the GI50 (CCRF-CEM leukemia) was 3.46 µM. For the same compound, the TGI (CCRF-CEM leukemia) was 13.5 µM, the GI50 (LOX IMVI melanoma) was 1.79 µM and the TGI (LOX IMVI melanoma) was 3.53 µM. For the same compound, the GI50 (NCI-H522 lung) was 1.81 µM, the TGI (NCI-H522 lung) was 3.46 µM and the GI50 (SK-MEL-2 melanoma) was 1.89 µM. The TGI (SK-MEL-2 melanoma) was 3.85 µM, the GI50 (OVCAR-3 ovarian) was 2.25 µM and the TGI (OVCAR-3 ovarian) was 5.93 µM. For the same compound, the GI50 (EKVX NSCLC) was 15.7 µM, the TGI (EKVX NSCLC) was 35.4 µM and the GI50 (A549 NSCLC) was 2.49 µM. The TGI (A549 NSCLC) was 5.83 µM.
